According to patent US20240390369A1, “METHODS FOR DETERMINING RESPONSIVENESS TO TYK2 INHIBITORS” (Bristol-Myers Squibb Company, priority 2021, published 2024):

Test system: patients with psoriatic arthritis
Experiment: Phase 2 trial in psoriatic arthritis: ACR20 response at week 16
Type: in vivo, human

For `[2H]C([2H])([2H])NC(=O)c1nnc(NC(=O)C2CC2)cc1Nc1cccc(-c2ncn(C)n2)c1OC` [deucravacitinib, 6-(cyclopropanecarboxamido)-4-((2-methoxy-3-(1-methyl-1H-1,2,4-triazol-3-yl)phenyl)amino)-N-(methyl-d3)pyridazine-3-carboxamide], the “Interaction Term for ACR20 response (ratio of odds ratios)” value (adjusted for baseline DAS28, 12 mg QD vs placebo: IL-19-high versus IL-19-low) was 7.37, the “Odds Ratio for ACR20 response” value (adjusted for baseline DAS28, All patients, 6 mg QD vs placebo) was 2.44 and the “Odds Ratio for ACR20 response” value (adjusted for baseline DAS28, BD2-high, 12 mg QD vs placebo) was 7.33. For the same compound, the “Odds Ratio for ACR20 response” value (adjusted for baseline DAS28, IL-17A-low, 12 mg QD vs placebo) was 2.16.
